Entries after “also recorded” stand apart in the source; their conditions may differ.
Experiments:
[1] = pI and charge of the self-assembling peptide; assay type: physicochemical
Procedure: (§1) A comparison of the pH dependent property of 1% Ac(RADA)4GGFHRRIKA CONH2 (SEQ ID NO. 6) solution (Code: FHR), self assembling peptide sequence was compared with the heparin-binding motif. FIG. 12 depicts the isoelectric plot and corresponding rheological data when 0.1 N NaOH solution is added to FHR solution to adjust pH. The net charge of the peptide molecule is kept ≧2 when pH<10. Until at point of pH 5.7, the solution keeps viscous state. This movement of pH point where the peptide solution become gel is controlled by the charge induced by the additional motif to the self-assembling peptide. The induced charge prevents the peptide to aggregate to form the gel. Thus, the cell and the peptide solution can be mixed near neutral pH. After complete mixing, the gel formation can be made by adding salt containing solution (e.g., a solution containing a gellation agent or an iso-osmotic solute).
FIG. 18 depicts the isoelectric plot and Rheological data of PFS 1% solution when 0.1 N NaOH solution is added. 1% Ac(RADA)4GGSKPPGTSS-CONH2 solution (Code: SKP, peptide sequence: SEQ ID NO. 7) is a hydrogel composed of peptides with a self-assembling sequence and positively-charged functional motif. Although the pI value of the peptide is 9.74 and it keeps positive charge at near pH 7 range, the gel is formed at the point of pH 4.5. This is because the charge of the molecule around pH 7 range is +1 and smaller than the charge of Ac(RADA)4GGFHRRIKA CONH2 (FHR) (bigger than 3). The charge of the whole peptide should be larger than 2 when the cell is mixed. This pH should be somewhere in 6-8 in order to minimize the damage to the cells. As this sequence is heparin-binding motif, the fiber can attach to the heparin molecule which is abundant at cell surface. This heparin-binding motif provides a specific anchor to the cell. As described in Example 1, this binding synergistically works with the other binding motif (e.g., RGD) to induce biological stimuli for cell proliferation and differentiation. This effect is not limited to the sequences previously describe, but the other motifs, including -XBBXBX- and -XBBBXXBX- sequences. […]

[2] = neutral pH range (Caplan 2002a); cited from earlier work
[3] = tested on: Mouse preosteoblast cell line (MC3T3-E1); assay: MC3T3-E1 cell proliferation on hydrogels (DNA content, PicoGreen); assay type: cell-based; conditions: pre-osteoblast; when it becomes hydrogel; no data shown
Procedure: Mouse preosteoblast cell line (MC3T3-E1) was used to compare the proliferation and differentiation effects of the motifs with RAD16-1 and Collagen-I hydrogels as controls. The proliferation was measured by DNA contents and the differentiation effects were evaluated using Alkaline phosphatase (ALP) activity and secreted Osteocalcin. Alkaline phosphatase is known to be differentiation marker of osteoblast in earlier stage. Secreted Osteocalcin is known to be differentiation marker of osteoblast in later stage and its activity is correlated with the bone mineralization.
1% RAD16-I solution [self-assembling peptide solution] was obtained as RAD16-I (Puramatrix™, 3DM Inc./BD Bioscience). The functionalized peptides of Table 2 were dissolved in water at final concentration of 1% (v/w). The functionalized peptide solutions were then mixed with 1% RAD16-I solution at a ratio of 1:1 (Table 4). Each peptide solution was loaded in the Culture plate inserts (10 mm diameter, Millicell-CM, Millipore). […]
Cell proliferation was evaluated using DNA contents in the hydrogel using PicoGreen dsDNA Kits (Molecular Probes). ALP activity was quantitatively measured from cell lysis using Alkaline Phosphatase Fluorescence Assay Kit (Sigma). Osteocalcin was measured from cell culture medium using Mouse Osteocalcin EIA Kit (Biomedical Technologies Inc.).

[4] = molecular target: bFGF (Homo sapiens, UniProt P09038); assay: bFGF retention in peptide matrix (ELISA); conditions: bFGF 175 ng/insert loaded after gelation; during PBS washing and culturing; FIG. 19
Procedure: (§2) The effect of protein retention and delivery using the self-assembling peptide were studied (Table 11). bFGF was used as a model protein. The retention of bFGF in different peptide matrix in different charge condition was measured by ELISA after washing by PBS. After washing out unbound bFGF, the effect of protein retention to self-assembling peptide matrix were evaluated the using cell culturing of HUVEC (human umbilical vein endothelial cells).
The peptide solutions provided in Table 12 were loaded in the culture inserts (10 mm diameter, Millicell-CM, Millipore) and gels were formed using PBS. After gelation, bFGF solution in PBS was added inside and outside and plated for overnight. bFGF was loaded at 175 ng/insert. After loading bFGF, the PBS inside and outside the inserts were exchanged three times (2 hours, 9 hours and 12 hours) to remove unbound bFGF (Washing). After the washing, the PBS was exchanged to the cell culture medium (EGM-2-MV, Camblex) without attached growth factor (bFGF, VEGF and EGF) and placed more than a day (such that the fluid contained in the gel is exchanged from PBS to cell culture medium), then HUVEC (human umbilical vein endothelial cells) were plated at 7.5×10^4 cells on the inserts and cultured for three days.
Cell culturing using cell culture medium (EGM-2-MV) was used without attached growth factor on peptide matrix as negative control. Cell culturing using cell culture medium (EGM-2-MV) was used with attached growth factor on peptide matrix without loading growth factor as positive control. The bFGF concentration in washing buffer (PBS) and cell culture medium (EGM-2-MV) was measured using ELISA. The washing buffer and cell culture medium were exchanged at each measurement period (2 hours, 9 hours and 12 hours for washing, and at the cell seeding (D0), Day 1 (D 1), Day 2 (D2) and Day 3 (D3)). Growth factor retention rate was calculated by accumulating the amount of measured bFGF.

[5] = neutral pH range (Caplan 2002a); cited from earlier work; remark: listed apart in the source
[6] = tested on: HUVEC (human umbilical vein endothelial cells); assay: HUVEC cell attachment on hydrogels based on various self-assembling sequence; conditions: HUVEC cultured for three days
Procedure: Cell attachment and viability of the hydrogels were evaluated using HUVEC (human umbilical vein endothelial cells). The peptide solutions shown in Table 22 were loaded in the culture inserts (10 mm diameter, Millicell-CM, Millipore) and gels were formed using cell culture medium (EGM-2-MV, Camblex). HUVEC were plated at 8×10^4 cells on the inserts and cultured for three days.
This implies that functionalization of the self-assembling peptide is useful regardless of the basic repetitive sequence, while the properties of hydrogel can be controlled by altering basic repetitive sequence in amino acid and length.

[7] = tested on: HUVEC (human umbilical vein endothelial cells); assay: HUVEC culture on bFGF loaded peptide matrix; assay type: cell-based; conditions: Day 3; bFGF loaded matrix compared to negative and positive control; FIG. 21
Procedure: as §2
The peptide solutions provided in Table 12 were loaded in the culture inserts (10 mm diameter, Millicell-CM, Millipore) and gels were formed using PBS. After gelation, bFGF solution in PBS was added inside and outside and plated for overnight. bFGF was loaded at 175 ng/insert. After loading bFGF, the PBS inside and outside the inserts were exchanged three times (2 hours, 9 hours and 12 hours) to remove unbound bFGF (Washing). […]
Cell culturing using cell culture medium (EGM-2-MV) was used without attached growth factor on peptide matrix as negative control. […] The bFGF concentration in washing buffer (PBS) and cell culture medium (EGM-2-MV) was measured using ELISA. […] Growth factor retention rate was calculated by accumulating the amount of measured bFGF. […]

[8] = tested on: HUVEC (human umbilical vein endothelial cells); assay: HUVEC cultured 2-dimensionally on hydrogels: cell attachment and morphology; assay type: cell-based; parameters: key to Capillary like morphology: weak: +; medium: ++; strong: +++; very strong: ++++; conditions: HUVEC cultured on hydrogels
Procedure: The effect of functional modified peptide matrix to HUVEC (human umbilical vein endothelial cells) was evaluated by culturing cells 2-dimensionally on the gel.
The peptide solutions shown in Table 19 were loaded in the culture inserts (10 mm diameter, Millicell-CM, Millipore) and gels were formed using cell culture medium (EGM-2-MV, Camblex). Collagen-1 and Matrigel were used as control matrices. HUVEC (human umbilical vein endothelial cells) were plated at 8×10^4 cells on the inserts and cultured up to 7 Days.

[9] = Isoelectric plot and rheological data when 0.1 N NaOH is added (pH of gel formation); assay type: physicochemical; conditions: 1% solution, 0.1 N NaOH solution added
From the text: At the point of pH 3.6, the viscous solution become gel and has a higher G′ (stiffness), G″ (viscosity) value. When the pH is increased, the gel breaks into small pieces and it becomes a solution with precipitated peptides. At lower pH, the peptide forms fibers and the fibers make the solution viscous. When the pH becomes higher, and approaches the pI value, the peptide fibers lose their charge and aggregate to form gel. The same gel formation happens when the peptide charge is screened by salts in a salt-containing solution (e.g., a solution containing a gellation agent or an iso-osmotic solute). Once the gel is formed, the fiber structure is broken into pieces to form a precipitate particle.
as §1
FIG. 18 depicts the isoelectric plot and Rheological data of PFS 1% solution when 0.1 N NaOH solution is added. 1% Ac(RADA)4GGSKPPGTSS-CONH2 solution (Code: SKP, peptide sequence: SEQ ID NO. 7) is a hydrogel composed of peptides with a self-assembling sequence and positively-charged functional motif. Although the pI value of the peptide is 9.74 and it keeps positive charge at near pH 7 range, the gel is formed at the point of pH 4.5. […]

[10] = Gel stiffness of hydrogel; assay type: physicochemical; conditions: compared to RAD
[11] = tested on: MC3T3-E1 cells; assay: Confocal microscopy of cells cultured on different functional peptide (DSG) concentration; assay type: cell-based, mouse
[12] = tested on: MC3T3-E1 cells; assay: Effect of RAD:DSG mixture ratio on cell proliferation (DNA contents, 7 days); assay type: cell-based, mouse; conditions: RAD:DSG mixture ratio varied from 100:0 to 0:100, FIG. 8
Procedure: Effect of a mixture of self-assembling sequence peptide (e.g., 1% RAD16-1 peptide solution) and a functionalized peptide (SEQ ID NO. 7) with self-assembling sequence (RADA) (SEQ ID NO. 67) and functional motif (RGD), was evaluated (Tables 8-9) SEQ ID NO. 7 has an additional Glycine at the N-terminus (compared to SEQ ID NO. 4), which causes an increase in hydrophobicity of the hydrogel. Biologically SEQ ID NO. 4 and SEQ ID NO. 7 are considered to have similar effects.
Hydrogels were prepared so that the mixture ratio of RAD and DSG was varied from 100:0 to 0:100 (FIG. 8). Cells were prepared and seeded as described in Example 1. Cells were cultured on hydrogels for 7 days. Cell proliferation was evaluated using DNA contents in the hydrogel as same as Example 1.

[13] = tested on: chondrocytes; conditions: encapsulated chondrocytes (Kisiday 2002); cited from earlier work

bFGF, sequence (P09038 143-288, species assumed): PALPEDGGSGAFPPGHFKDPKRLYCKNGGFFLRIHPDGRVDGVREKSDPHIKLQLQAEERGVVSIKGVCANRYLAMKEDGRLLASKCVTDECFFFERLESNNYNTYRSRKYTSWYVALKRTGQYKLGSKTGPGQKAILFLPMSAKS

Ac(FKFQ)3-CONH2 (Ac-FKFQFKFQFKFQ-NH2) [FKF = 1% solution; FKF-2P = 2% solution, reference compound]
charge [1]: positively charged
pI [1]: 10.30,
phase of peptide solution in neutral pH range [2]: stays solution phase; also recorded: stays in solution
cell proliferation on hydrogel [3]: supports cell proliferation
bFGF (growth factor) retention rate [4]: high in the order of KFQ-2P, FHR-2P, RAD-2P then DGR-2P
charge in neutral pH range [5]: positively charged
Cell attachment [6]: ++ (++: 20-50%)

Ac(RADA)4GGDGRGDSVAYG-CONH2 (Ac-RADARADARADARADAGGDGRGDSVAYG-NH2) [SEQ ID NO. 5, Cell adhesion domain (Osteopontin); DGR-2P = 2% solution]
charge [1]: negatively charged
pI [1]: 4.78,
bFGF (growth factor) retention rate [4]: high in the order of KFQ-2P, FHR-2P, RAD-2P then DGR-2P
cell attachment and cell spread [7]: superior

Ac(RADA)4GGPFSSTKT-CONH2 (Ac-RADARADARADARADAGGPFSSTKT-NH2) [Bone marrow homing; PFS = 1% peptide solution]
Capillary like morphology [8]: +
Cell attachment [8]: ++ (++: 20-50%)

Ac(RADA)4GGSKPPGTSS-CONH2 (Ac-RADARADARADARADAGGSKPPGTSS-NH2) [Bone marrow homing; SKP = 1% solution]
pI [1]: 9.74
charge of the molecule around pH 7 range ([1]; around pH 7): +1
pH at which the viscous peptide solution becomes gel [9]: 4.5

Ac(RADA)4GPRGDSGYRGDSG-CONH2 (Ac-RADARADARADARADAGPRGDSGYRGDSG-NH2) [DSG = 1% solution]
gel stiffness [10]: less stiff gel; also recorded: lower stiffness gel
cell location on the peptide matrix ([11]; DSG ratio 10%, FIG. 9A): stayed on the surface of the peptide matrix
cell migration into the matrix ([11]; DSG ratio 70%, FIG. 9B): up to 300 um
Cell proliferation (fluorescence intensity linear to the DNA contents) [12]: drop in fluorescence and drop

Ac-IEIKIEIKI-NH2 [reference compound]
Cell attachment [6]: ++ (++: 20-50%)

AcFKFQFKFQFKFQGPRGDSGYRGDS-CONH2 [KPRG]
Cell attachment [6]: ++++ (++++: near confluence(>70%))

AcIEIKIEIKIGGPFSSTKT-CONH2 [EPFS]
Cell attachment [6]: + (+: Weak(<20%))

AcIEIKIEIKIGGPRGSYRGDS-CONH2 [EPRG]
Cell attachment [6]: ++++ (++++: near confluence(>70%))

AcIEIKIEIKIGGSKPPGTS-CONH2 [ESKP]
Cell attachment [6]: + (+: Weak(<20%))

AcNKLDLKLDLKLDL-CONH2 (Ac-KLDLKLDLKLDL-NH2; not fully specified) [KLD12]
chondrocyte phenotype and ECM [13]: retained their morphology and developed a cartilage-like, mechanically functional ECM rich in proteoglycans and type-II collagen

Reference: US8022178B2, “Modified self-assembling peptides” (Massachusetts Institute of Technology, priority 2006, dated 2011)
